Measured values published in ChEMBL document CHEMBL4000213, “New antiprotozoal agents: Synthesis and biological evaluation of different 4-(7-chloroquinolin-4-yl) piperazin-1-yl)pyrrolidin-2-yl)methanone derivatives” (Bioorg Med Chem Lett, 2017).
The source made the active and inactive calls. The calls are words filed in the database; no cut-off is given here.

Experiments:
Anopheles arabiensis [1] = experiment: Larvicidal activity against Anopheles arabiensis KGB at 0.5 uM measured after 24 hrs relative to control; assay type: functional
Anopheles arabiensis [2] = experiment: Larvicidal activity against Anopheles arabiensis KGB measured after 24 hrs; assay type: functional; settings: read-out: LD50 (the source's name)
Plasmodium falciparum = experiment: Antimalarial activity against chloroquine-sensitive Plasmodium falciparum NF54 infected in erythrocytes measured after 48 hrs by Malstat/nitroblue tetrazolium/phenazine ethosulphate reagent based LDH assay; assay type: functional, cell-based; settings: NF54, 48 h
HEK293 = experiment: Cytotoxicity against HEK293 cells measured after 48 hrs by MTT assay; assay type: cell-based; settings: Homo sapiens, HEK293, 48 h
[3] = Selectivity index, ratio of IC50 for cytotoxicity against HEK293 cells to IC50 for anti-malarial activity against chloroquine-sensitive Plasmodium falciparum NF54 infected in erythrocytes; assay type: toxicity, cell-based; settings: human; read-out: Ratio IC50
Entamoeba histolytica = experiment: Anti-amoebic activity against trophozoites of Entamoeba histolytica HM-1:IMSS gassed with nitrogen for 10 mins measured after 72 hrs by eosin staining based micro dilution method; assay type: functional
[4] = Antioxidant activity assessed as inhibition of ferrous chloride-induced lipid peroxidation at 50 uM preincubated for 24 hrs followed by ferrous chloride addition relative to control; assay type: functional

## Clc1ccc(C(c2ccc(Cl)cc2)C(Cl)(Cl)Cl)cc1 [CHLOROPHENOTHANE]
Anopheles arabiensis [1]
  Activity: 100%
Anopheles arabiensis [2]
  LC50: 0.5 µM

## C=C[C@H]1CN2CC[C@H]1C[C@H]2[C@H](O)c1ccnc2ccc(OC)cc12 [QUININE]
Plasmodium falciparum
  IC50: 0.18 µM
HEK293
  IC50: 276 µM
[3]
  selectivity ratio: 1490

## O=C(CN1CCN(c2ccnc3cc(Cl)ccc23)CC1)NC1CCCCC1
Entamoeba histolytica
  IC50: 0.86 µM

## Cc1c(C)c2c(c(C)c1O)CCC(C)(C(=O)O)O2 (stereo unspecified)
[4]
  inhibition: 74%

## O=C([C@H]1CCCN1S(=O)(=O)c1ccccc1)N1CCN(c2ccnc3cc(Cl)ccc23)CC1
Entamoeba histolytica
  IC50: 1.26 µM
Plasmodium falciparum
  IC50: 5.33 µM
HEK293
  IC50: 64.1 µM
[3]
  selectivity ratio: 12
[4]
  inhibition: < 1%
Anopheles arabiensis [1]
  Activity: inactive

## COc1ccc(S(=O)(=O)N2CCC[C@@H]2C(=O)N2CCN(c3ccnc4cc(Cl)ccc34)CC2)cc1
Entamoeba histolytica
  IC50: 5.73 µM
Plasmodium falciparum
  IC50: 4.02 µM
HEK293
  IC50: 57.7 µM
[3]
  selectivity ratio: 14.3
[4]
  inhibition: < 1%
Anopheles arabiensis [1]
  Activity: inactive

## Cc1ccc(S(=O)(=O)N2CCC[C@@H]2C(=O)N2CCN(c3ccnc4cc(Cl)ccc34)CC2)cc1
Entamoeba histolytica
  IC50: 0.34 µM
Plasmodium falciparum
  IC50: 1.42 µM
HEK293
  IC50: 81.2 µM
[3]
  selectivity ratio: 57.1
[4]
  inhibition: < 1%
Anopheles arabiensis [1]
  Activity: inactive

## O=C([C@H]1CCCN1S(=O)(=O)c1ccccc1[N+](=O)[O-])N1CCN(c2ccnc3cc(Cl)ccc23)CC1
Entamoeba histolytica
  IC50: 2.08 µM
Plasmodium falciparum
  IC50: 4.08 µM
HEK293
  IC50: 57.7 µM
[3]
  selectivity ratio: 14.2
[4]
  inhibition: < 1%
Anopheles arabiensis [1]
  Activity: inactive

## Cc1cc(C)c(S(=O)(=O)N2CCC[C@@H]2C(=O)N2CCN(c3ccnc4cc(Cl)ccc34)CC2)c(C)c1
Entamoeba histolytica
  IC50: 0.14 µM
Plasmodium falciparum
  IC50: 19.6 µM
HEK293
  IC50: 14.7 µM
[3]
  selectivity ratio: 0.75
[4]
  inhibition: < 1%
Anopheles arabiensis [1]
  Activity: inactive

## CCCS(=O)(=O)N1CCC[C@@H]1C(=O)N1CCN(c2ccnc3cc(Cl)ccc23)CC1
Entamoeba histolytica
  IC50: 6.91 µM
[4]
  inhibition: < 1%
Anopheles arabiensis [1]
  Activity: inactive

## O=C([C@H]1CCCN1S(=O)(=O)c1ccc(Cl)cc1)N1CCN(c2ccnc3cc(Cl)ccc23)CC1
Entamoeba histolytica
  IC50: 0.31 µM
Plasmodium falciparum
  IC50: 6.33 µM
HEK293
  IC50: 46 µM
[3]
  selectivity ratio: 7.27
[4]
  inhibition: < 1%
Anopheles arabiensis [1]
  Activity: inactive

## O=C([C@H]1CCCN1S(=O)(=O)c1ccc2ccccc2c1)N1CCN(c2ccnc3cc(Cl)ccc23)CC1
Entamoeba histolytica
  IC50: 0.34 µM
Plasmodium falciparum
  IC50: 3.45 µM
HEK293
  IC50: 24.4 µM
[3]
  selectivity ratio: 7.06
[4]
  inhibition: < 1%
Anopheles arabiensis [1]
  Activity: inactive

## O=C(CN1CCN(c2ccnc3cc(Cl)ccc23)CC1)Nc1ccc(F)cc1
Entamoeba histolytica
  IC50: 0.41 µM

## CC[C@@]1(O)C(=O)OCc2c1cc1n(c2=O)Cc2cc3ccccc3nc2-1 [CAMPTOTHECIN]
HEK293
  IC50: 0.01 µM

## CC(C)(C)c1ccc(S(=O)(=O)N2CCC[C@@H]2C(=O)N2CCN(c3ccnc4cc(Cl)ccc34)CC2)cc1
Entamoeba histolytica
  IC50: 0.77 µM
Plasmodium falciparum
  IC50: 3.21 µM
HEK293
  IC50: 53.1 µM
[3]
  selectivity ratio: 16.5
[4]
  inhibition: < 1%
Anopheles arabiensis [1]
  Activity: inactive

## O=C([C@H]1CCCN1S(=O)(=O)c1cc(Cl)ccc1Cl)N1CCN(c2ccnc3cc(Cl)ccc23)CC1
Entamoeba histolytica
  IC50: 8.89 µM
Plasmodium falciparum
  IC50: 4.21 µM
HEK293
  IC50: 38 µM
[3]
  selectivity ratio: 9.02
[4]
  inhibition: < 1%
Anopheles arabiensis [1]
  Activity: inactive
